“Also recorded” adds a separate entry of the source.
Key:
[1] = test system: patients affected by polyarticular RA; assay: Evaluation of efficacy of therapies in course prior to treatment; format: in vivo, human; parameters: key to Efficacy of present therapy: Nil; Scarce; Good; Excellent; settings: single cases
Excerpt: (§1) With reference to each of the clinical cases taken into consideration, supplied below are the particulars relevant to diagnosis, evaluation of efficacy of therapies in course prior to treatment (Nil, Scarce, Good, Excellent), and finally the clinical observations after treatment with Somatostatin (SS) or with Placebo (PL).

[2] = test system: patients affected by polyarticular RA (knee joint); assay: Double-blind trial versus placebo: clinical observations and side effects; format: in vivo, human; settings: at the moment of administration or in the following days; 750 micrograms into knee joint
Procedure: Clinical efficacy of Somatostatin was verified by means of a double-blind trial versus placebo.
17 patients affected by polyarticular RA were selected for the trial. Each patient was informed about the experimental nature of the treatment. The articular site chosen for the study was the knee.
In accordance with the double-blind procedure (Somatostatin versus placebo), 10 patients were treated with Somatostatin ("STILAMIN", 750 micrograms) injected inside the knee joint.
Clinical observations were carried out at time 0, each 10 minutes of the first hour, than at hourly intervals for 3 hours. A further evaluation was made after one week; during the period between the treatment and the evaluation on the seventh day, the patients filled out a table for selfevaluation. Parameters chosen were Ritchie's Index and Huskisson's Scale of Pain, evaluation of pain being made when walking, upon flexion and supine.
as §1

[3] = Piroxicam 20 mg together with 6-alpha-methylprednisolone (8 mg or 4 mg)
[4] = single drug in course prior to treatment

Row | SMILES | Efficacy of present therapy [1, 4] | also measured
1 | C[C@H]1C[C@@H]2[C@H]([C@@H](O)C[C@@]3(C)[C@H]2CC[C@]3(O)C(=O)CO)[C@@]2(C)C=CC(=O)C=C12 [6-alpha-methylprednisolone] | Scarce | Efficacy of present therapy [1, 3]: Scarce
2 | O=C(O)Cc1ccccc1Nc1c(Cl)cccc1Cl [Diclofenac] | Scarce | 
3 | CCN(CCO)CCCC(C)Nc1ccnc2cc(Cl)ccc12 (centres unmarked) [Hydroxychloroquine] |  | results of basic therapy (case history) ([1]; before the trial): scarce results; also recorded: Disease still in acute phase
4 | CC(C(=O)O)c1cccc(C(=O)c2ccccc2)c1 (centres unmarked) [Ketoprofene] | Nil | 
5 | COc1ccc2cc([C@H](C)C(=O)O)ccc2c1 [Naproxen] | Good | Efficacy of present therapy ([1]; single drug in course prior to treatment, listed as Naproxene): Good and Scarce
6 | CN1C(C(=O)Nc2ccccn2)=C(O)c2ccccc2S1(=O)=O [Piroxicam] | Scarce | Efficacy of present therapy [1, 3]: Scarce
7 | C[C@H](N)C(=O)NCC(=O)N[C@H]1CSSC[C@@H](C(=O)O)NC(=O)[C@H](CO)NC(=O)[C@H]([C@@H](C)O)NC(=O)[C@H](Cc2ccccc2)NC(=O)[C@H]([C@@H](C)O)NC(=O)[C@H](CCCCN)NC(=O)[C@H](Cc2c[nH]c3ccccc23)NC(=O)[C@H](Cc2ccccc2)NC(=O)[C@H](Cc2ccccc2)NC(=O)[C@H](CC(N)=O)NC(=O)[C@H](CCCCN)NC1=O [Somatostatin] |  | clinical side effects [2]: No verifiable clinical side effects
8 | CC(C(=O)O)c1ccc(C(=O)c2ccccc2)s1 (centres unmarked) [Thiaprophenic Acid] | Nil and Scarce | 

— patent US4966889A, “Treatment of inflammatory articular diseases” (Industria Farmaceutica Serono SpA, priority 1986, dated 1990)
